In PMC9693510, “High-Throughput Metabolic Soft-Spot Identification in Liver Microsomes by LC/UV/MS: Application of a Single Variable Incubation Time Approach” (Molecules, 2022):
Read-outs that look alike come from different tables or passages of the source.

Assays:
[1] = Metabolic soft-spot determination in HLM using LC/UV/Qtrap
Description: A specific incubation time for the individual test compounds was set up for 1–20 min based on their metabolic stability T1/2 values (Table 1). An LC/UV/Qtrap system with an Ultimate XB-C18 column (100 mm × 2.1 mm, 1.8 µm, Welch, China) was employed for quantitative and qualitative analyses of metabolites of the test compounds in HLM incubations. The mobile phases were the same as the metabolic stability assay, and the flow rate was 0.3 mL/min. […] The mass spectrometer was operated in positive ion mode using a successive multiple ion monitoring-triggered enhanced product ion scan (MIM-EPI) mode. […] All the ion source parameters were set as the following values: CUR: 30 psi; IS: 5500 V; TEM: 500 °C; GS1 and GS2: 50 psi; DP: 70 V. A criterion for the data-dependent EPI was set for the three most intense ions in each dynamic background subtraction (DBS) survey scan spectrum with an intensity threshold of 500 cps. The CE was set to 5 eV for the survey scan and 40 eV with CE spread (CES) of 15 eV for the dependent EPI scan. The scan speed for ER and EPI were 250 amu/s and 20,000 amu/s, respectively. LC/UV profiles of individual incubation were generated to reveal major metabolites using wavelengths on the λmax of parent compounds (Table S1). Protonated molecules of major metabolites were determined by matching major metabolite peak(s) in LC/UV profiles to similar ion peaks shown in LC/MS profiles from the MIM scanning or data processing. EIC, PIF, and NLF tools on PeakView SoftwareTM 1.2 (AB SCIEX, Foster City, CA, USA) were used to process LC/MS and LC/MS2 datasets. MS/MS spectral data of major metabolites were retrieved from corresponding LC/MS2 data based on their protonated molecules. The structural characterization of major metabolites was carried based on interpretation of their MS/MS spectra and biotransformation knowledge.

in vitro = settings: human, microsomes, pH 7.4
[2] = Metabolic soft-spot determination in HLM using LC/UV/Q-TOF (Triple TOF); settings: 8 min
Description: (§1) Supernatants of incubation samples were dried under nitrogen and then reconstituted in 100 μL of 5% acetonitrile in water prior to analysis using LC/UV/HRMS.
(§2) An LC/MS system consisted of an LC instrument (Shimadzu HPLC with a photodiode array detector (PDA), Shimadzu, Kyoto, Japan) and TripleTOF (AB 4600, Sciex, Framingham, MA, USA) was employed. LC separation was carried out using a Phenomenex Kinetex-C18 (2.1 × 150 mm, 2.6 μm, CA) and a mobile phase comprised of 0.1% formic acid (v/v) in water (solvent A) and 0.1% formic acid in acetonitrile (v/v) (solvent B). The total running time was 5 min, and the flow rate was 0.4 mL/min. […] The mass spectrometer was operating in the positive electrospray ionization mode in the m/z range of 100–1000. Dynamic background subtraction (DBS) was employed to record full-scan MS and MS/MS data simultaneously. Two approaches were used for finding and confirming protonated molecules of major metabolites. One approach was to directly get the information by reviewing full-scan MS spectra of peaks in unprocessed LC/MS dataset, which had very similar LC retention times and peak shapes to those of major metabolites shown in corresponding LC/UV profiles.

[3] = human, 3 µM, pH 7.4; for Major metabolites relative abundance (% of total UV peak areas of drug and its metabolites): 60 min
Description: as §1, §2

[4] = 0.5 µM, HLM 0.5 mg/mL, 60 min, LC/MS analysis of the parent drug; cited from earlier work
[5] = Determination of metabolic stability in HLM; settings: human, microsomes, pH 7.4
[6] = HLM, 10 µM, 60 min, cited from earlier work

SMILES: CCNCc1cc(Nc2ccnc3cc(Cl)ccc23)ccc1O [AM1]
- Major metabolites relative abundance (% of total UV peak areas of drug and its metabolites) ([1]; human, 1 min, 3 µM, pH 7.4): Deethylation: AM1 (26.5%)

SMILES: CCN(CC)Cc1cc(Nc2ccnc3cc(Cl)ccc23)ccc1O [Amodiaquine, amodiaquine]
- half-life at 0.5 µM (in vitro): 1.3 min
- Disappearance of the parent ([1]; human, 1 min, 3 µM, pH 7.4): 23%
- The parent drug relative abundance (% of total UV peak areas of drug and its metabolites) ([1]; human, 1 min, 3 µM, pH 7.4): Amodiaquine (77.0%)

SMILES: O=C1CC2(CCC(O)C2)CC(=O)N1CCCCN1CCN(c2ncccn2)CC1 (centres unmarked) [B3]
- Major metabolites relative abundance (% of total UV peak areas of drug and its metabolites) ([2]; buspirone 3 μM): 12.1%

SMILES: O=C1CC2(CCCC2)C(O)C(=O)N1CCCCN1CCN(c2ncccn2)CC1 (centres unmarked) [B10]
- Major metabolites relative abundance (% of total UV peak areas of drug and its metabolites) ([2]; buspirone 3 μM): 16.5%

SMILES: O=C1CC2(CCCC2)CC(=O)N1CCCCN1CCN(c2ncc(O)cn2)CC1 [B12]
- Major metabolites relative abundance (% of total UV peak areas of drug and its metabolites) ([2]; buspirone 3 μM): 5.2%

SMILES: O=C1CC2(CCCC2)CC(=O)N1CCCC[N+]1([O-])CCN(c2ncccn2)CC1 [B15]
- Major metabolites relative abundance (% of total UV peak areas of drug and its metabolites) ([2]; buspirone 3 μM): 7.1%

SMILES: O=C1CC2(CCCC2)CC(=O)N1CCCCN1CCN(c2ncccn2)CC1 [Buspirone, buspirone, reference compound]
- The parent drug relative abundance (% of total UV peak areas of drug and its metabolites) ([3]; 8 min): Buspirone (59.1%)
- T1/2 in HLM [4]: Buspirone ^d (7.6 min)

SMILES: COc1ccc2c(c1)[C@]13CCCC[C@@H]1[C@H](C2)N(C)CC3 [Dextromethorphan, dextromethorphan]
- half-life at 0.5 µM [5]: 24 min
- The parent drug relative abundance (% of total UV peak areas of drug and its metabolites) ([1]; dextromethorphan 3 μM, 30 min, HLM): Dextromethorphan (75.5%)
- The parent drug relative abundance (% of total UV peak areas of drug and its metabolites) ([1]; dextromethorphan 3 μM, 30 min, HLM, listed as dextromethorphan): 75.5%

SMILES: CN1CCN2c3ncc(O)cc3Cc3ccccc3C2C1 (centres unmarked) [M1]
- Major metabolites relative abundance (% of total UV peak areas of drug and its metabolites) [3]: 10.7%

SMILES: c1ccc2c(c1)Cc1cccnc1N1CCNCC21 (centres unmarked) [M2]
- Major metabolites relative abundance (% of total UV peak areas of drug and its metabolites) [3]: 8.1%

SMILES: OCc1ncc2n1-c1ccc(Cl)cc1C(c1ccccc1F)=NC2 [MM2]
- Major metabolites relative abundance (% of total UV peak areas of drug and its metabolites) ([1]; midazolam 3 μM, 2 min, HLM): Mono-oxidation: MM2 (29.0%)

SMILES: Cc1ncc2n1-c1ccc(Cl)cc1C(c1ccccc1F)=NC2 [Midazolam, midazolam]
- Disappearance of the parent ([1]; midazolam 3 μM, 2 min, HLM): 31%

SMILES: CNCCCC(C#N)(c1ccc(OC)c(OC)c1)C(C)C (centres unmarked) [V1]
- Major metabolites relative abundance (% of total UV peak areas of drug and its metabolites) ([2]; verapamil 5 μM): 6.1%

SMILES: COc1ccc(CCNCCCC(C#N)(c2ccc(OC)c(OC)c2)C(C)C)cc1OC (centres unmarked) [V5]
- Major metabolites relative abundance (% of total UV peak areas of drug and its metabolites) ([2]; verapamil 5 μM): 14.7%

SMILES: CNCCCC(C#N)(c1ccc(OC)c(OC)c1)C(C)C (centres unmarked) [VM2]
- Major metabolites relative abundance (% of total UV peak areas of drug and its metabolites) ([1]; human, 4 min, 3 µM, pH 7.4): 8.9%

SMILES: COc1ccc(CCNCCCC(C#N)(c2ccc(OC)c(OC)c2)C(C)C)cc1OC (centres unmarked) [VM8]
- Major metabolites relative abundance (% of total UV peak areas of drug and its metabolites) ([1]; human, 4 min, 3 µM, pH 7.4): 19.0%

SMILES: CN(C)CCC1(c2ccccc2)CCc2ccccc2C1=O (centres unmarked) [nafenodone]
- Disappearance of the parent ([6]; estimated): over 80%
- Number of oxidative metabolites formed [6]: 26
